Data published in patent publication US20200093843A1, “COMPOUNDS FOR TREATMENT OF INTRACTABLE EPILEPSY AND DOORS SYNDROME” (VIB VZW, priority 2016, published 2020).
Entries after “also recorded” stand apart in the source; their conditions may differ.

What was measured:
[1] = described in literature; listed as erufosine; cited from earlier work
Sky1-353 R79C mutant = molecular target: T1, Sky1-353 R79C mutant (Drosophila melanogaster, UniProt Q9VIH7, R79C); test: Thermal shift assay, IP3 binding to Sky1-353 R79C
T1 construct: the TBC domain of Sky (Sky1-353) was expressed from the pET28a vector (Novagen) as an N-terminal His6-tag fusion; His6 (N); made in house; host or cells: E. coli C41 (DE3)
Description: (§1) The thermal stability of the R79C and R281C mutants in absence of ligands (Tm=32° C.) is somewhat lower compared to the wild type protein (Tm=34° C.) and the R335P mutant (Tm=35° C.). […] These experimental data moreover correspond with our structural data where R79 and R281 both form bifurcated electrostatic interactions with the phosphate on position 5, while R335 forms a single electrostatic interaction with the phosphate group on position 1 (FIG. 3e).
(§2) Thermal unfolding was detected by following SYPRO orange fluorescence using a CFX connect Real-Time PCR System (BioRad). […] The temperature was increased from 20° C. to 80° C. at 0.5° C./30s steps. All measurements were done in triplicate.

Sky1-353 R335P mutant = molecular target: T2, Sky1-353 R335P mutant (Drosophila melanogaster, UniProt Q9VIH7, R335P); test: Thermal shift assay, IP3 binding to Sky1-353 R335P
T2 construct: the TBC domain of Sky (Sky1-353) was expressed from the pET28a vector (Novagen) as an N-terminal His6-tag fusion; His6 (N); made in house; host or cells: E. coli C41 (DE3)
Description: as §1, §2

Sky1-353 R281C mutant = molecular target: T3, Sky1-353 R281C mutant (Drosophila melanogaster, UniProt Q9VIH7, R281C); test: Thermal shift assay, IP3 binding to Sky1-353 R281C; settings: saturating amount of IP3, R281C mutant
T3 construct: the TBC domain of Sky (Sky1-353) was expressed from the pET28a vector (Novagen) as an N-terminal His6-tag fusion; His6 (N); made in house; host or cells: E. coli C41 (DE3)
Description: as §1, §2

[2] = molecular target: T4, wild type Sky1-353 (TBC domain of Skywalker) (Drosophila melanogaster, UniProt Q9VIH7); test: Thermal shift assay, ligand binding to wild type Sky1-353
T4 construct: the TBC domain of Sky (Sky1-353) was expressed from the pET28a vector (Novagen) as an N-terminal His6-tag fusion; His6 (N); made in house; host or cells: E. coli C41 (DE3)
T4 sequence (Q9VIH7 1-353): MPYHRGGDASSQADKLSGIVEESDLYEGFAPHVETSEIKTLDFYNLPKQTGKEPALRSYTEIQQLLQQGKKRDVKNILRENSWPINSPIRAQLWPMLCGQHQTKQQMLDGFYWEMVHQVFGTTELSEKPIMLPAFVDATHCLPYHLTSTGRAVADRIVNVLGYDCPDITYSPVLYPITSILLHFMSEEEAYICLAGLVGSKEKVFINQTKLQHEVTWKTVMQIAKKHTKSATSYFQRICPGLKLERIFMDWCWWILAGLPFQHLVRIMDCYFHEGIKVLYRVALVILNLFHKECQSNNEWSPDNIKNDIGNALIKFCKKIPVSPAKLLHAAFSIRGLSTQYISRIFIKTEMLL
Description: as §2

[3] = test system: sky^1/2 mutants expressing Sky^R79C; test: Seizure assay in drug-fed flies; format: in vivo, Drosophila; settings: for rescue of seizure-like behaviour: versus mock-treated
Description: To assure that stimulation of PI(4,5)P2 levels in vivo can rescue the defects associated with the Skywalker cationic pocket mutants (Sky^R79C), a commercially available alkyl phospholipid compound, Miltefosine, with known impact on PI(4,5)P2 levels was tested for treatment of gender selected adult 4-7 day old sky^1/2 flies with cationic pocket mutations. For drug feeding, 10-20 flies per treatment vial were maintained in a 12 h light and dark cycle to maintain circadian rhythm, while the analysis was performed on 5 flies per vial for flight, after acclimatization to the test chamber, and 10 flies per vial for stimulation or behavioural challenge by vortexing. In total n=20 flies were analyzed per treatment as well as for the control flies reared on normal food (mock-treated). The effect of Miltefosine (Sigma, M5571) daily administered in dyed food at 50 μg/mL or at 100 μg/mL was tested over a feeding period of 2 and 8 days of drug exposure, after which animal behaviour was analyzed via flight and seizure assays.
Each data point represents averages of 10 animals tested over 8 days and analyzed per drug treatment as well as the control flies reared on normal food (mock-treated).
For drug treatment, a concentration range between […] was tested for daily administration. […] Treatments were performed and were tested over a feeding period of 2 and 8 days of drug exposure, after which animal behaviour was tested in flight and seizure assays.
Adult flies of the genotype sky^1/sky^2 (sky^1/2); nsyb-Gal4/UAS-Sky^R79C or genotypes as indicated, were raised at 21° C. on standard fly food, containing the indicated drugs (Miltefosine, Perifosine, Edelfosine, Erufosine) or on control food prepared without drugs. Animals were collected and gender selected 2 to 5 days after enclosure. On days 2 and 8 of incubation on drugs, flight assays were performed with groups of 5 gender-selected animals in each transparent vial. Following a tap to collect the animals at the bottom of the vial, behaviour was distinguished between walking, jumping and flight. Seizure assays were performed with groups of 10 gender-selected animals that were transferred into transparent vials and excited by vortexing once for 10 seconds in behaviour studies, or in a sequence (1 minute vortexing, 1 minute rest, 1 minute vortexing) for drug treatment studies. This test sequence was repeated following 5 minutes of rest. Active and fallen flies were quantified over the course of the following minute. To ensure natural behaviour animals were not anesthetized on the day of experiments or over the course of drug application.

[4] = molecular target: T5, 5′-phosphatase domain of Synaptojanin-1 (Homo sapiens, UniProt O43426); test: Malachite Green phosphatase assay; format: biochemical; settings: 1 mM compound, 1% DMSO, 40 μM IP3 substrate, 1 h, background subtracted
T5 construct: made in house
Text: First, an expression plasmid for the recombinant expression of the 5′-phosphatase domain of Synj1 (SEQ ID NO:1) was constructed. […] A commercially available assay in a 96-well plate format is the Malachite Green Phosphate Assay Kit (BioAssay Systems).
After assay optimization, the assay is used to measure inhibitory activity of known compounds as well as to further allow a high-throughput setup for compound screening.
The Malachite Green Phosphate Assay Kit (BioAssay Systems) is a discontinuous assay that measures the concentrations of enzymatically released phosphate after formation of a complex with malachite green and molybdate (absorbance is measured at 620 nm). […] As a read-out the Absorbance at 620 nm after 60 min incubation is measured and the background starting signal is subtracted. For inhibitory compound screening, 1 mM of the test compound dissolved in 1% DMSO was used.

wild type Sky1-353 = molecular target: T6, wild type Sky1-353 (Drosophila melanogaster, UniProt Q9VIH7); test: Liposome flotation assay; format: binding; settings: for binding of Sky1-353 to liposomes: PC:PS liposomes enriched with 2% of the indicated phosphoinositide
T6 construct: the TBC domain of Sky (Sky1-353) was expressed from the pET28a vector (Novagen) as an N-terminal His6-tag fusion; His6 (N); made in house; host or cells: E. coli C41 (DE3)
T6 sequence (Q9VIH7 1-353): T4 sequence (Q9VIH7 1-353)
Text: TBC1D24 and Skywalker regulate vesicle trafficking, a process that requires membrane interactions^20,24,30. We therefore hypothesized that the positively charged pocket of Sky serves as a binding module to negatively charged membranes. We used a liposome flotation assay and mixed Sky1-353 with liposomes produced from Folch-extracted total brain lipids and centrifuged the sample in a sucrose gradient. After recovering six fractions from the top to the bottom of the centrifugation tube we find that Sky1-353 is present in the top fractions that contain the liposomes. […] A major class of lipids that regulates presynaptic activity are phosphoinositides^31. Lipid strip interaction experiments using Sky1-353 are indeed compatible with Sky interacting with phosphoinositides. We therefore resorted to liposome flotation assays using liposomes composed of phosphatidylcholine and phosphatidylserine and supplemented with different types of phosphoinositides (FIG. 3b). […] Moreover, the binding can be reversed by adding increasing concentrations of salt, as would be expected from binding that is mainly driven by electrostatic interactions.
Liposomes were prepared using either Folch brain total lipid extract or using a mix of phosphatidylcholine and phosphatidylserine (80:20 ratio) supplemented with 0.5%, 2% or 5% of a specific phosphoinositide as indicated. The liposomes were subsequently incubated with 6 μg of wild-type or mutant Sky1-353. PI(4,5)P2-Grip (Echelon Biosciences, Salt Lake City, USA) was used as a positive control. Subsequently, this mix was loaded on a sucrose cushion (30% sucrose layer, 25% sucrose layer and HP30 buffer layer) and centrifuged. Individual fractions from the top to the bottom were collected and assayed using Western blotting against His6 (Sky) or GST (PI(4,5)P2-Grip).

[5] = PI(4,5)P2 varied from 0% to 5% in liposomes

T5 sequence (O43426 528-873): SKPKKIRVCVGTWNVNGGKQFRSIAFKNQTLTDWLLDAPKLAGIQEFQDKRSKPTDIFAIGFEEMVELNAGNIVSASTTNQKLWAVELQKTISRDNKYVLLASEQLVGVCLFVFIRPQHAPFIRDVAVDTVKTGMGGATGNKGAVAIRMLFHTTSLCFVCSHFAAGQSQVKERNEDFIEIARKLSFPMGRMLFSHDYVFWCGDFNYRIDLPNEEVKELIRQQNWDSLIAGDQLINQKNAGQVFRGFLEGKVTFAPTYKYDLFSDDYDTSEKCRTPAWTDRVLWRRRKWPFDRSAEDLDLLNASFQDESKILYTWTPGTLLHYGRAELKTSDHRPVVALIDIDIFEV
T2 sequence (Q9VIH7 1-353 R335P): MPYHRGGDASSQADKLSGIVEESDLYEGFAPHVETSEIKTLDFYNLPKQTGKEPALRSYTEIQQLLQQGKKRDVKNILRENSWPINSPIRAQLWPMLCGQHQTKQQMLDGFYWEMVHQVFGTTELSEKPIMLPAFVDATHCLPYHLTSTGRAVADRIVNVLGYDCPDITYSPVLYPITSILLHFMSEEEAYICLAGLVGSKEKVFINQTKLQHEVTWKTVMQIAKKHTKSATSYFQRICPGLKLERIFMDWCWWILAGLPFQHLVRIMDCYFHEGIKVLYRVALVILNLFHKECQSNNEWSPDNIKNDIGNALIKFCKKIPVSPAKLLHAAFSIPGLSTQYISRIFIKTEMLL
T1 sequence (Q9VIH7 1-353 R79C): as the sequence (Q9VIH7 1-353 R335P) above, with R79C, P335R counted along it
T3 sequence (Q9VIH7 1-353 R281C): as the sequence (Q9VIH7 1-353 R335P) above, with R281C, P335R counted along it

Q: For `CCCCCCCC/C=C\CCCCCCCCCCCCOP(=O)([O-])OCC[N+](C)(C)C` [Erufosine], which blood-brain-barrier crossing [1] is on record?
A: known to allow BBB crossing

Q: For `O=P(O)(O)O[C@@H]1[C@H](O)[C@H](O)[C@@H](OP(=O)(O)O)[C@H](OP(=O)(O)O)[C@H]1O` [IP3, inositol 1,4,5-trisphosphate], which Kd (Sky1-353 R79C mutant) is on record?
A: 325 ± 200 µM

Q: What about the “increase in thermal stability” value (Sky1-353 R79C mutant; saturating amount of IP3, R79C mutant) of the same molecule?
A: 4 °C

Q: And the Kd (Sky1-353 R335P mutant)?
A: 67 ± 17 µM

Q: What about the “increase in thermal stability” value (Sky1-353 R335P mutant; saturating amount of IP3, R335P mutant) of the same molecule?
A: 8 °C

Q: And the “increase in thermal stability” value (Sky1-353 R281C mutant)?
A: 4 °C

Q: And the Kd [2]?
A: 19 ± 3 µM

Q: For `CCCCCCCCCCCCCCCCOP(=O)([O-])OCC[N+](C)(C)C` [Miltefosine], which “rescue of seizure-like behaviour” value ([3]; 50 μg/mL in food, 2 days of drug feeding, p<0.001) is on record?
A: highly significant; also recorded: significant rescue of seizure-like behaviour

Q: And the “rescue of seizure-like behaviour” value ([3]; 50 μg/mL in food, 8 days of drug feeding, p<0.1)?
A: lasted at least up to 8 days after treatment; also recorded: significant rescue of seizure-like behaviour

Q: And the “rescue of seizure-like behaviour” value ([3]; 100 μg/mL in food (probably toxic), 2 or 8 days)?
A: did not lead to significant difference

Q: What about the “inhibition of 5′-phosphatase activity” value [4] of the same molecule?
A: effective inhibitors; also recorded: complete inhibition

Q: With `CCCCCCCCCCCCCCCCCCOP(=O)([O-])OC1CC[N+](C)(C)CC1` [Perifosine] as the molecule, how does the effect on seizures ([3]; 1000 μg/mL daily in dyed food, up to 8 days) read?
A: positive effect

Q: And the “inhibition of 5′-phosphatase activity” value [4]?
A: effective inhibitors

Q: And the “inhibition of 5′-phosphatase activity” value ([4]; listed as Perisofine)?
A: complete inhibition

Q: For PI(3)P, which “binding of Sky1-353 to liposomes” value (wild type Sky1-353) is on record?
A: does not bind

Q: Which “binding of Sky1-353 to liposomes” value (wild type Sky1-353) does the source give for PI(3,4,5)P3 here?
A: strongest binding

Q: For PI(4)P, which “binding of Sky1-353 to liposomes” value (wild type Sky1-353) is on record?
A: weak but significant binding

Q: With PI(5)P as the molecule, how does the “binding of Sky1-353 to liposomes” value (wild type Sky1-353) read?
A: weak but significant binding

Q: With “phosphatidylinositol 4,5-bisphosphate [PI(4,5)P2]” as the molecule, how does the “binding of Sky1-353 to liposomes” value (wild type Sky1-353) read?
A: strongest binding

Q: And the “PI(4,5)P2 concentration at which full binding is reached” value (wild type Sky1-353; [5])?
A: 2%

Q: And the “lowest PI(4,5)P2 concentration at which binding is observed” value (wild type Sky1-353; [5])?
A: 0.5%

Q: For phosphatidylinositol [PI], which “binding of Sky1-353 to liposomes” value (wild type Sky1-353) is on record?
A: does not bind
